Assays:
MCA205 fibrosarcoma = assay: Anticancer vaccination with lurbinectedin-treated dying MCA205 cells and rechallenge; format: in vivo, immunocompetent C57BL/6 mice; conditions: MCA205 cells treated with 1 μM lurbinectedin injected s.c., rechallenge with live cells one week later
Protocol: MCA205 cells treated for 20 h with 1 μM lurbinectedin were inoculated subcutaneously (s.c.) into immunocompetent C57BL/6 mice, which were rechallenged 7 days later s.c. with living cells of the same type. The tumour growth was measured until endpoints were reached and overall survival was evaluated regularly for the following 30 days (n=6). (*p<. 01, two-tailed Student's t test, compared to all other groups). Data were analyzed with TumGrowth.
(§1) In order to assess the capacity of lurbinectedin to stimulate anticancer immunity in a monotherapeutic approach and to convert tumour cells into a therapeutic vaccine we exposed murine fibrosarcoma cells to the drug in vitro (in conditions previously established to induce a sufficient amplitude of cell death) and then injected the dying cancer cells into syngeneic immunocompetent mice. […] Next we evaluated the effect of lurbinectedin on established cancers growing on immunocompetent or immunodeficient mice. […]
(§2) Six- to eight-week-old female wild-type C57BL/6 and nu/nu mice were obtained from Envigo France (Huntingdon, UK) and were kept in the animal facility at the Gustave Roussy Campus Cancer in a specific pathogen-free and temperature-controlled environment with 12 h day, 12 h night cycles and received food and water ad libitum. […] Animals were monitored and tumour growth documented regularly until end-points were reached. […]

MCA205 tumours = assay: Established MCA205 tumours in immunodeficient mice; format: in vivo; conditions: athymic (nu/nu) mice; 0.18 mg/kg i.v. day 1, 7 and 14
Protocol: Live MCA205 cells were injected subcutaneously (s.c.) into immunocompetent C57BL/6 mice or immunodeficient nu/nu mice as depicted in the scheme in (a) When tumours became palpable, mice were intravenously ([…]). Tumour growth was assessed regularly for the following 30 days. Data is depicted as tumour growth curves (b,d) and overall survival plots (c,e). Data were analyzed with TumGrowth.
as §1, §2

SMILES: COc1ccc2[nH]c3c(c2c1)CCN[C@]31CS[C@@H]2c3c(OC(C)=O)c(C)c4c(c3[C@H](COC1=O)N1[C@@H]2[C@H]2c3c(cc(C)c(OC)c3O)C[C@@H]([C@@H]1O)N2C)OCO4 [lurbinectedin]
- overall survival after rechallenge (MCA205 fibrosarcoma): increase
- tumour growth after rechallenge (MCA205 fibrosarcoma; p=0.0094): significantly reduced
- therapeutic effect (tumour growth, overall survival) (MCA205 tumours): lost
